{"source": "patent US20070036776A1", "about": "“Bacterial signaling molecules that down-regulate pathogenic bacterial virulence properties” (priority 2004, published 2007)", "test_system": "human peripheral blood mononuclear cells (PBMCs)", "type": "cell-based", "data": [{"substance": "staphylococcal superantigen-like protein 11 [SSL11]", "values": [{"measurement": "induction of T cell proliferation", "value": "not able to induce"}]}, {"substance": "toxic shock syndrome toxin-1 [TSST-1]", "values": [{"measurement": "concentration of maximum stimulation", "value": 50, "unit": "ng/mL"}, {"measurement": "half maximal proliferation", "value": "approximately 500 pg/mL"}]}]}
